Laboratory results from patent US20090275583A1, “ANTIVIRAL COMPOUNDS AND USE THEREOF” (Myriad Genetics, Incorporated, priority 2006, published 2009).

Experiments:
[1] = test system: HIV-1NL4-3; test: P4-MAGI assay; assay type: cell-based; details: Human immunodeficiency virus 1, 24 h, P4 cells, 24 hour incubation, β-galactosidase expression; read-out: P4-MAGI IC50
Procedure, shortened: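 Cytotoxicity (TC50, 50% growth inhibition) came from WST-1 in uninfected cells. For antiviral activity, compound at rising concentrations was added immediately after HIV-1NL4-3 inoculation (MOI 1, DEAE-Dextran) of P4 cells, CD4+ HeLa cells expressing β-galactosidase from a minimal HIV-1 LTR upon infection.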

[2] = test system: HIV-1 laboratory strain, NL4-3; test: MT-4 cytoprotection assay; assay type: cell-based; details: Human immunodeficiency virus 1, NL43, MT4, 96 h; MT-4 cells, four days incubation, WST-1 readout; read-out: MT4 EC50
Procedure, shortened: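 MT-4 cells mock- or batch-infected with NL4-3 (MOI 0.0005) for 2 h, washed, then cultured 4 days with increasing compound concentrations. Viability read by WST-1 tetrazolium reduction: cytoprotection in infected cells, toxicity in mock-infected cells.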

SMILES	IC50 [1]	EC50 [2]
C=C(C)[C@@H]1CC[C@]2(C(=O)NCCc3cccc(C(=O)NCc4ccc(C(=O)OC)cn4)c3)CC[C@]3(C)C(CCC4[C@@]5(C)CCC(=O)C(C)(C)C5CC[C@]43C)C12 (stereo partly drawn) [Example 201]	28.8 nM	15.5 nM
C=C(C)[C@@H]1CC[C@]2(C(=O)NCCc3cccc(C(=O)NCc4ccc(C(=O)O)cn4)c3)CC[C@]3(C)C(CCC4[C@@]5(C)CCC(=O)C(C)(C)C5CC[C@]43C)C12 (stereo partly drawn) [Example 202]	22.2 nM	20.5 nM
C=C(C)[C@@H]1CC[C@]2(C(=O)NCCc3cccc(C(=O)NCc4cccc(COCc5cccc(C(=O)O)c5)c4)c3)CC[C@]3(C)C(CCC4[C@@]5(C)CC[C@H](O)C(C)(C)C5CC[C@]43C)C12 (stereo partly drawn) [Example 208]	28.9 nM	42.5 nM
C=C(C)[C@@H]1CC[C@]2(C(=O)NCCc3cccc(C(=O)NCC4CCC(C(=O)OC)CC4)c3)CC[C@]3(C)C(CCC4[C@@]5(C)CC[C@H](O)C(C)(C)C5CC[C@]43C)C12 (stereo partly drawn) [Example 210]	30.8 nM	33 nM
C=C(C)[C@@H]1CC[C@]2(C(=O)NCCc3cccc(C(=O)NCC4CCC(C(=O)O)CC4)c3)CC[C@]3(C)C(CCC4[C@@]5(C)CC[C@H](O)C(C)(C)C5CC[C@]43C)C12 (stereo partly drawn) [Example 211]	11.2 nM	19 nM
C=C(C)[C@@H]1CC[C@]2(C(=O)NCCc3cccc(C(=O)NCC4(CC(=O)O)CCCCC4)c3)CC[C@]3(C)C(CCC4[C@@]5(C)CC[C@H](O)C(C)(C)C5CC[C@]43C)C12 (stereo partly drawn) [Example 212]	85 nM	96.5 nM
C=C(C)[C@@H]1CC[C@]2(C(=O)NCCc3cccc(C(=O)N[C@H](C)C4CCC(C(=O)OC)CC4)c3)CC[C@]3(C)C(CCC4[C@@]5(C)CC[C@H](O)C(C)(C)C5CC[C@]43C)C12 (stereo partly drawn) [Example 213]	38.9 nM	22 nM
C=C(C)[C@@H]1CC[C@]2(C(=O)NCCc3cccc(C(=O)NCC4OC5OC(C)(C)O[C@@H]5[C@@H](O)[C@@H]4O)c3)CC[C@]3(C)C(CCC4[C@@]5(C)CC[C@H](O)C(C)(C)C5CC[C@]43C)C12 (stereo partly drawn) [Example 214]	200 nM	214 nM
C=C(C)[C@@H]1CC[C@]2(C(=O)NCCc3cccc(C(=O)N[C@H](C)C4CCC(C(=O)O)CC4)c3)CC[C@]3(C)C(CCC4[C@@]5(C)CC[C@H](O)C(C)(C)C5CC[C@]43C)C12 (stereo partly drawn) [Example 215]	22 nM	11.5 nM
C=C(C)[C@@H]1CC[C@]2(C(=O)NCCc3cccc(-c4nnc(Cc5ccc(C#N)cc5)o4)c3)CC[C@]3(C)C(CCC4[C@@]5(C)CC[C@H](O)C(C)(C)C5CC[C@]43C)C12 (stereo partly drawn) [Example 216]	66.5 nM	2700 nM
C=C(C)[C@@H]1CC[C@]2(C(=O)NCCc3cccc(-c4nnc(Cc5ccc(-c6nn[nH]n6)cc5)o4)c3)CC[C@]3(C)C(CCC4[C@@]5(C)CC[C@H](O)C(C)(C)C5CC[C@]43C)C12 (stereo partly drawn) [Example 217]	87 nM	49 nM
C=C(C)[C@@H]1CC[C@]2(C(=O)NCCc3cccc(C(=O)NCc4ccc(C(=O)N[C@H](CC(=O)OC)C(=O)OC)cn4)c3)CC[C@]3(C)C(CCC4[C@@]5(C)CC[C@H](O)C(C)(C)C5CC[C@]43C)C12 (stereo partly drawn) [Example 221]	9 nM	35 nM
C=C(C)[C@@H]1CC[C@]2(C(=O)NCCc3cccc(C(=O)NCc4ccc(C(=O)N[C@H](CC(=O)O)C(=O)O)cn4)c3)CC[C@]3(C)C(CCC4[C@@]5(C)CC[C@H](O)C(C)(C)C5CC[C@]43C)C12 (stereo partly drawn) [Example 222]	65.7 nM	727 nM
C=C(C)[C@@H]1CC[C@]2(C(=O)NCCc3cccc(C(=O)NCc4ccc(C(=O)N[C@H](CCC(=O)OC)C(=O)OC)cn4)c3)CC[C@]3(C)C(CCC4[C@@]5(C)CC[C@H](O)C(C)(C)C5CC[C@]43C)C12 (stereo partly drawn) [Example 223]	21.7 nM	21 nM
C=C(C)[C@@H]1CC[C@]2(C(=O)NCCc3cccc(C(=O)NCc4ccc(C(=O)N[C@H](CCC(=O)O)C(=O)O)cn4)c3)CC[C@]3(C)C(CCC4[C@@]5(C)CC[C@H](O)C(C)(C)C5CC[C@]43C)C12 (stereo partly drawn) [Example 224]	35.5 nM	258 nM
C=C(C)[C@@H]1CC[C@]2(C(=O)NCCc3cccc(C(=O)NCc4ccc(C(=O)NC(C(=O)O)C(N)C(=O)O)cn4)c3)CC[C@]3(C)C(CCC4[C@@]5(C)CC[C@H](O)C(C)(C)C5CC[C@]43C)C12 (stereo partly drawn) [Example 225]	38.5 nM	53 nM
C=C(C)[C@@H]1CC[C@]2(C(=O)NCCc3cccc(C(=O)NCc4ccc(C(=O)N[C@H](C(=O)O)C(C)C)cn4)c3)CC[C@]3(C)C(CCC4[C@@]5(C)CC[C@H](O)C(C)(C)C5CC[C@]43C)C12 (stereo partly drawn) [Example 226]	11.8 nM	102 nM
C=C(C)[C@@H]1CC[C@]2(C(=O)NCCc3cccc(C(=O)NCc4ncccc4C(=O)OC)c3)CC[C@]3(C)C(CCC4[C@@]5(C)CC[C@H](O)C(C)(C)C5CC[C@]43C)C12 (stereo partly drawn) [Example 227]	67.5 nM	761 nM

SMILES	IC50 [1]	EC50 [2]
C=C(C)[C@@H]1CC[C@]2(C(=O)NCCc3cccc(C(=O)NCc4cccnc4C(=O)OC)c3)CC[C@]3(C)C(CCC4[C@@]5(C)CC[C@H](O)C(C)(C)C5CC[C@]43C)C12 (stereo partly drawn) [Example 229]	7 nM	44 nM
C=C(C)[C@@H]1CC[C@]2(C(=O)NCCc3cccc(C(=O)NCc4cccnc4C(=O)O)c3)CC[C@]3(C)C(CCC4[C@@]5(C)CC[C@H](O)C(C)(C)C5CC[C@]43C)C12 (stereo partly drawn) [Example 230]	56 nM	300 nM
C=C(C)[C@@H]1CC[C@]2(C(=O)NCCc3cccc(C(=O)NCc4ccc(OCCCn5ccnc5)cc4)c3)CC[C@]3(C)C(CCC4[C@@]5(C)CC[C@H](O)C(C)(C)C5CC[C@]43C)C12 (stereo partly drawn) [Example 231]	14.2 nM	18.5 nM
C=C(C)[C@@H]1CC[C@]2(C(=O)NCCc3cccc(C(=O)NCc4ccc(OCCCO)cc4)c3)CC[C@]3(C)C(CCC4[C@@]5(C)CC[C@H](O)C(C)(C)C5CC[C@]43C)C12 (stereo partly drawn) [Example 232]	38.5 nM	71.5 nM
C=C(C)[C@@H]1CC[C@]2(C(=O)NCCc3cccc(C(=O)NCc4ccc(OCCCn5cncc5C(=O)OC)cc4)c3)CC[C@]3(C)C(CCC4[C@@]5(C)CC[C@H](O)C(C)(C)C5CC[C@]43C)C12 (stereo partly drawn) [Example 234]	18.5 nM	27 nM
C=C(C)[C@@H]1CC[C@]2(C(=O)NCCc3cccc(C(=O)NCc4ccc(OCCCn5cnc(C(=O)OC)c5)cc4)c3)CC[C@]3(C)C(CCC4[C@@]5(C)CC[C@H](O)C(C)(C)C5CC[C@]43C)C12 (stereo partly drawn) [Example 235]	18 nM	66.5 nM
C=C(C)[C@@H]1CC[C@]2(C(=O)NCCc3cccc(C(=O)NCc4ccc(OCCCN5CCN(S(=O)(=O)CC)CC5)cc4)c3)CC[C@]3(C)C(CCC4[C@@]5(C)CC[C@H](O)C(C)(C)C5CC[C@]43C)C12 (stereo partly drawn) [Example 236]	19.8 nM	30 nM
C=C(C)[C@@H]1CC[C@]2(C(=O)NCCc3cccc(C(=O)NCc4ccc(O)c(C(=O)OC)c4)c3)CC[C@]3(C)C(CCC4[C@@]5(C)CC[C@H](O)C(C)(C)C5CC[C@]43C)C12 (stereo partly drawn) [Example 239]	32.1 nM	105 nM
C=C(C)[C@@H]1CC[C@]2(C(=O)NCCc3cccc(C(=O)NCc4ccc(O)c(C(=O)O)c4)c3)CC[C@]3(C)C(CCC4[C@@]5(C)CC[C@H](O)C(C)(C)C5CC[C@]43C)C12 (stereo partly drawn) [Example 240]	19 nM	33 nM
C=C(C)[C@@H]1CC[C@]2(C(=O)NCCc3cccc(C(=O)NCc4ccc(OCCCN5CC(C)NC(C)C5)c(C(=O)O)c4)c3)CC[C@]3(C)C(CCC4[C@@]5(C)CC[C@H](O)C(C)(C)C5CC[C@]43C)C12 (stereo partly drawn) [Example 241]	5 nM	22.5 nM
C=C(C)[C@@H]1CC[C@]2(C(=O)NCCc3cccc(C(=O)NCc4ccc(OCCCn5ccnc5)c(C(=O)O)c4)c3)CC[C@]3(C)C(CCC4[C@@]5(C)CC[C@H](O)C(C)(C)C5CC[C@]43C)C12 (stereo partly drawn) [Example 242]	41.3 nM	91 nM
C=C(C)[C@@H]1CC[C@]2(C(=O)NCCc3cccc(C(=O)NCc4ccc(OCCCN5CCN(S(=O)(=O)CC)CC5)c(C(=O)O)c4)c3)CC[C@]3(C)C(CCC4[C@@]5(C)CC[C@H](O)C(C)(C)C5CC[C@]43C)C12 (stereo partly drawn) [Example 243]	17.5 nM	26 nM
C=C(C)[C@@H]1CC[C@]2(C(=O)NCCc3cccc(C(=O)NCc4ccc(OCCCN5CCNCC5)c(C(=O)O)c4)c3)CC[C@]3(C)C(CCC4[C@@]5(C)CC[C@H](O)C(C)(C)C5CC[C@]43C)C12 (stereo partly drawn) [Example 245]	27.4 nM	35 nM
C=C(C)[C@@H]1CC[C@]2(C(=O)NCCc3cccc(C(=O)NCc4ccc(OCCCn5cncc5C(=O)O)c(C(=O)O)c4)c3)CC[C@]3(C)C(CCC4[C@@]5(C)CC[C@H](O)C(C)(C)C5CC[C@]43C)C12 (stereo partly drawn) [Example 246]	57.3 nM	233 nM
C=C(C)[C@@H]1CC[C@]2(C(=O)NCCc3cccc(S(=O)(=O)NCc4ccc(C(=O)OC)cc4)c3)CC[C@]3(C)C(CCC4[C@@]5(C)CC[C@H](O)C(C)(C)C5CC[C@]43C)C12 (stereo partly drawn) [Example 250]	106 nM	594 nM
C=C(C)[C@@H]1CC[C@]2(C(=O)NCCc3cccc(S(=O)(=O)NCc4ccc(C(=O)O)cc4)c3)CC[C@]3(C)C(CCC4[C@@]5(C)CC[C@H](O)C(C)(C)C5CC[C@]43C)C12 (stereo partly drawn) [Example 251]	68 nM	258 nM
C=C(C)[C@@H]1CC[C@]2(C(=O)NCCc3cccc(C(=O)NCc4ccc(C#N)cn4)c3)CC[C@]3(C)C(CCC4[C@@]5(C)CC[C@H](O)C(C)(C)C5CC[C@]43C)C12 (stereo partly drawn) [Example 252]	25 nM	14 nM
C=C(C)[C@@H]1CC[C@]2(C(=O)NCCc3cccc(C(=O)NCc4ccc(-c5nn[nH]n5)cn4)c3)CC[C@]3(C)C(CCC4[C@@]5(C)CC[C@H](O)C(C)(C)C5CC[C@]43C)C12 (stereo partly drawn) [Example 253]	10.8 nM	3.5 nM
